# Reference: PubChem BioAssay AID588838 (Broad Institute, 2011)
# Test system: P. falciparum Dd2 in RBCs, SYBR green growth
# Experiment: growth inhibition of P. falciparum blood stages, dose response, PfHsp90 inhibitor project, Dd2 strain, red blood cells, dry powder (AID 588838)
row,Structure (SMILES),AC50
1,O=C(CSCC(=O)N1CCCCC1)Nc1nc(-c2ccc(Cl)s2)cs1,40 µM
2,COc1ccc2c(c1)C=C(C(=O)NCc1ccc(Cl)cc1)CO2,43.9 µM
3,Cc1ccc(OCc2n[nH]c(=S)n2C2CCCCC2)cc1,60.6 µM
4,O=S(=O)(NC1CCCCCC1)c1ccc(Br)s1,16.3 µM
5,O=S(=O)(/C=C/c1ccccc1)NC1CCCCCCC1,66.1 µM
6,O=S(=O)(NC1CC2CCC1C2)c1ccc(Cl)cc1 (stereo unspecified),98.5 µM
